We go through 7 compounds from patent US10028992B2, “Methods of treating muscular dystrophy” (BOARD OF REGENTS OF THE NEVADA SYSTEM OF HIGHER EDUCATION …, priority 2012, dated 2018).

Read-outs that look alike come from different tables or passages of the source.

In one experiment the test system is α7 integrin promoter. The experiment in a line: muscle cell-based assay: α7βgal+/− myoblasts/myotubes, LacZ reporter, β-galactosidase cleavage of FDG. The arrangement: species or system mouse. The settings on record: for EC50: read-out: EC50; for Result in α7+/− β-galactosidase assay: Myoblasts. The method, boiled down:
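Primary α7βgal+/− mouse myoblasts (LacZ knocked into α7 integrin exon 1, promoter retained), differentiated; promoter activity read as β-galactosidase conversion of non-fluorescent FDG to fluorescein. Hits followed by dose-response, western analysis and myostatin counterscreen.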

For experiment [1], the system named is α7 integrin. Description: western analysis of α7 integrin in DMD myoblasts/myotubes. The class given is cell-based, human. The settings on record: 2,2-dipyridyl 31.25 μM, deferoxamine 5 and 10 μM, 132 hrs. The method, then: (§1) FIGS. 13A-13D illustrate western blot studies in which protein extracts from C2C12 (A, B) and DMD (C, D) myoblasts were first treated with PBS or 100 nM LAM-111 and then subjected to western analysis of the α7B integrin and the Cox-1 loading standard. *=p<0.05.
Protein was extracted from the cells and subjected to western blotting using antibodies against α7 integrin. α-tubulin was used as a loading control.
(§2) It is contemplated that the identified parent scaffolds (Tables 8 and 9) increase α7 integrin expression through a similar mechanism.

Experiment [2] concerns α7 integrin. The experiment in a line: western analysis of α7 integrin in C2C12 myoblasts/myotubes. The settings on record: C2C12 myotubes. The class given is cell-based, mouse. On the procedure: as §1
Bands were quantified using Image J software and then graphed as α7 Integrin protein levels relative to GAPDH protein levels. * denotes a significant difference in relative protein levels with **p<0.01.
The ability of laminin to regulate α7 integrin expression, α7βgal^+/− myoblasts were exposed to 0-200 nM laminin-111 for 24 hours. The activity of the α7 integrin promoter was measured by β-galactosidase cleavage of the non-fluorescent compound fluorescein di-β-D-galactopyranoside (FDG) to fluorescein. […] The ability of laminin-111 to increase α7 integrin expression was confirmed by western analysis using mouse and human DMD muscle cells (FIGS. 2A-2D).
as §2

The test system of another experiment is Mdx/utr−/− mice. The experiment in a line: treatment of mdx/utr−/− mice. The settings on record: mouse, in vivo.

By EC50 is commonly meant the concentration needed to bring the measured effect to its halfway point. With `c1ccc(-c2ccccn2)nc1` [2,2-Dipyridyl, 2,2-dipyridyl, reference compound], in the experiment on α7 integrin promoter, the “Optimal Concentration” value stood at 125 μm and the EC50 is 62.5 µM. The α7 integrin protein entry with α7 integrin [1] is “increased”.

As for `CC(C)CCC[C@@H](C)[C@H]1CC[C@H]2[C@@H]3CC(=O)[C@H]4C[C@@H](O)CC[C@]4(C)[C@H]3CC[C@]12C` [5α-cholestan-3β-ol-6-one, reference compound], in the experiment with α7 integrin promoter, the EC100 worked out at 20 µM, the “Optimal Concentration” value came to 20 μm and the EC50 stood at 6 µM. Moreover, the α7 integrin protein result in the experiment with α7 integrin [1] was “increased”.

As for `CCCC(CCC)C(=O)O` [Valproic acid, valproic acid], in the experiment on α7 integrin promoter (Mus musculus, enhancement of α7 integrin expression in muscle cells), the EC50 came to 500 µM. In addition, the “Optimal Concentration” value in the experiment on α7 integrin promoter (enhancement of α7 integrin expression in muscle cells) was 2 mM. Also, the α7 integrin protein entry in the experiment with α7 integrin [2] is “increased”. In the experiment on Mdx/utr−/− mice, the “Akt signaling pathway in muscle” value is on record as “activation”, the fibrosis entry was “reduced fibrosis” and the mobility entry was “improved mobility”. The muscle disease result in the experiment on Mdx/utr−/− mice (listed as Valproic Acid) is “reduced muscle disease”. The muscle disease result in the experiment with Mdx/utr−/− mice (listed as valproic acid) was “reduced overall muscle disease”.

`O=C1Nc2ccccc2/C1=C1/Nc2ccccc2/C1=N\O` [drawing 722]: the “Result in α7+/− β-galactosidase assay” value with α7 integrin promoter (0.5 uM) is 0.1752; in the experiment with α7 integrin promoter (1 uM), 0.3255; with α7 integrin promoter (5 uM) it was −0.404; with α7 integrin promoter (10 uM) it was −0.681; with α7 integrin promoter (20 uM) it was −0.6914; in the experiment with α7 integrin promoter (40 uM) it was −0.8176.

With `CCN(CC)CCNC(=O)c1c(C)[nH]c(CC2C(=O)Nc3ccc(F)cc32)c1C` (stereo not drawn) [drawing 723], the “Result in α7+/− β-galactosidase assay” value is 0.02287 with α7 integrin promoter (0.5 uM); 0.01135 in the experiment on α7 integrin promoter (1 uM); −0.471 in the experiment on α7 integrin promoter (5 uM); −0.913 with α7 integrin promoter (10 uM); −0.9852 in the experiment with α7 integrin promoter (20 uM); −0.9864 in the experiment with α7 integrin promoter (40 uM).

On to `Cc1[nH]c(/C=C2\C(=O)Nc3ccc([S+](=O)([O-])Cc4c(Cl)cccc4Cl)cc32)c(C)c1C(=O)C1CCCN1CN1CCCC1` (stereo not drawn) [drawing 725], for which the “Result in α7+/− β-galactosidase assay” value with α7 integrin promoter (0.5 uM) is 0.05199; in the experiment on α7 integrin promoter (1 uM), 0.07607; in the experiment with α7 integrin promoter (5 uM) it was −0.1295; in the experiment with α7 integrin promoter (10 uM), −0.4121; in the experiment with α7 integrin promoter (20 uM) it was −0.9816; with α7 integrin promoter (40 uM), −0.9806.

Consider `O=C1Nc2ccccc2/C1=C1/Nc2ccccc2/C1=N\O` [drawing 726], for which the “Result in α7+/− β-galactosidase assay” value is 0.07252 in the experiment on α7 integrin promoter (0.5 uM); 0.1204 in the experiment with α7 integrin promoter (1 uM); −0.1537 in the experiment on α7 integrin promoter (5 uM); −0.432 in the experiment with α7 integrin promoter (10 uM); −0.6932 in the experiment with α7 integrin promoter (20 uM); −0.758 in the experiment with α7 integrin promoter (40 uM).
